What was measured:
Meloidogyne javanica J2s = assay: Greenhouse nematocidal experiment with susceptible tomato plants in inoculated loam; assay type: in vivo; settings: 30 ppm in soil, tomato harvested after 8 weeks
Experimental: The activity of trans-2-octenal against nematodes was examined in a greenhouse experiment using stage 2 juveniles of the rot-knot nematode Meloidogyne javanica. […] After 2 days, the inoculated soil was treated with 30 ppm of trans-2-octenal and incubated for additional 5 days. Then, susceptible tomato plants were planted, and allowed to grow in a growing chamber for 8 weeks. At the end of the experiment, the plants, along with their root systems, were harvested from their pots and evaluated for incidence of root galling. In addition, M. javanica eggs were extracted from each root and counted, and the number of eggs per gram root was calculated. As shown in FIGS. 14A-14D, trans-2-octenal reduced the galling index and the number of eggs per gram root. […] The activity of 2-cyclohexen-1-one against nematodes was examined in a greenhouse experiment using stage 2 juveniles of the rot-knot nematode Meloidogyne javanica. The experiment was performed as described for trans-2-octenal. […] After 2 days, the inoculated soil was treated with 15 or 31 ppm of 2-cyclohexen-1-one and incubated for additional 5 days. Then, susceptible tomato plants were planted, and allowed to grow in a growing chamber for 8 weeks. At the end of the experiment, the plants, along with their root systems, were harvested from their pots and evaluated for incidence of root galling. In addition, M. javanica eggs were extracted from each root and counted, and the number of eggs per gram root was calculated.

[1] = test system: Meloidogyne javanica second stage juveniles (J2s); assay: Nematocidal activity: viability of J2 nematodes after 2 days exposure to the compound in a sealed box; assay type: in vivo; settings: comparison within the series
Description: In exemplary procedures, the sedentary root-knot nematode from the genus Meloidogyne javanica second stage juveniles (J2s) was propagated on greenhouse-grown nematode-susceptible tomato Lycopersicon esculentum cv. ‘Avigail 870’ (Hazera, Shikmim, Israel), and nematode eggs were bulk-extracted from the roots with 0.05% (v/v) sodium hypochlorite (NaOCl) followed by sucrose flotation and successive sievings through nylon filters of 300, 120, 60, and 30 μm mesh sizes (AD Sinun Technologies, Petach Tikvah, Israel). For hatching J2, extracted eggs were placed on 30-μm sieves (AD Sinun Technologies) in 0.01 M MES (2-(N-morpholino) ethanesulfonic acid hydrate) pH 6.5 buffer under aseptic conditions in darkness for 5 days, and hatching J2s were collected for further experiments.
Seven vials, each containing 300 J2 nematodes with 0.5 mL of 0.01 M 2-(N-morpholino)ethanesulfonic acid (MES) buffer, were exposed to cyclic ketone compounds in order to examine their nematocidal activity and reduction in viability. In addition, a humid environment in a sealed 1 L box was maintained by addition 5 ml of distilled H2O to a 50-mm Petri plate. The box was sealed after compound addition into each 50-mm Petri plate together with 5-250 mg of perlite particles and incubated for 2 days in the dark at 25±1° C. C5 and C6 saturated and α,β-unsaturated cyclic ketones were tested for their nematocidal activity. The J2 nematodes viability was examined following exposure to the cyclic ketone compounds, by a straightforward small-scale nematode extraction method, based on the traditional Baermann funnel method. Briefly, all nematode suspensions were loaded onto 30-μm (AD Sinun Technologies) filters (1.0-1.5 cm height, 1.1-2.0 cm^3 internal area), and the nematodes were washed twice with 300 μL of 0.01 M MES buffer in order to remove any residues. Then, filters holding nematodes were placed into 15 mL Falcon centrifuge tubes, each containing 900 μL of 0.01 M of MES buffer. These filters allow active passage of only living J2s while paralyzed or dead nematodes remain on top of the filter. The whole apparatus including the filter holding the nematodes and the Falcon tubes were placed in the dark for 3 h at 25±1° C. Then, the filters were removed and the viable nematodes, which were able to actively cross the filter toward the 0.01 M of MES buffer, were collected from the Falcon tube and counted using a Nematode Counting Slide (Chalex LLC, Portland, OR, USA) and a SV11 stereomicroscope (Zeiss, Jena, Germany).
Data were analyzed by the JMP 12 software package (SAS Inc., Cary, NC, USA). Mean numbers of viable J2s under various conditions were subjected to one-way analysis of variance (ANOVA), followed by the Tukey-Kramer multiple comparison test, with significance set at P<0.05.

test fungi = assay: Fungicidal activity assay on PDA, summaries over the test fungi; assay type: cell-based; settings: over the fungi tested

**Q.** Which galling index (Meloidogyne javanica J2s) does the source give for CCCCC/C=C/C=O [trans-2-octenal] here?
**A.** The galling index was “reduced”.

**Q.** What about the “number of eggs per gram root” value (Meloidogyne javanica J2s) of the same molecule?
**A.** The value was “reduced”.

**Q.** And the “nematocidal activity in words” value [1]?
**A.** The value was “relatively less potent nematicide”.

**Q.** What about the “concentrations that completely inhibited the fungi growth and killed the fungi” value (test fungi) of the same molecule?
**A.** The value was 6.25-50 ppm.

Source: US11998008B2, “Pesticides and methods of controlling pests” (The State of Israel, Ministry of Agriculture & Rural …, priority 2017, dated 2024)
